Data: paper PMC9965906, “Discovery and Development Strategies for SARS-CoV-2 NSP3 Macrodomain Inhibitors” (Pathogens, 2023)
Several values for one entry are separate records, joined by “and”; a condition that tells them apart may be missing. Equal values may be shown once. Read-outs that look alike come from different tables or passages of the source.

Molecular target: SARS-CoV-2 NSP3 Mac1 (Severe acute respiratory syndrome coronavirus 2, UniProt P0DTD1)
Assay: biochemical
Type: binding
Details: for NSP3 Mac1 inhibition at 50 µM (%) / inhibition at 50 µM: FDA-approved compound library primary screen, single shot; for Hill slope: confirmatory HTRF assays; for inhibition at 125 µM: read-out: Inhibition at top concentration of 125 µM (%)
[1] = MIDAS compound library primary screen, 25 µM
[2] = BioAscent virtual screening hit compounds, 25 µM, duplicate
[3] = MIDAS hit compounds and analogues
[4] = MIDAS hit compounds and analogues, top concentration 125 µM, 8-point 1:1 dilution, duplicate, read-out: IC50
[5] = MIDAS hit compounds and analogues, top concentration 125 µM, 8-point 1:1 dilution, duplicate

## O=C(Nc1ccc2cc[nH]c2c1)c1csc(NCC2CCCO2)n1 (stereo not drawn) [ARUK4000671-001-001, O=C(Nc1ccc2cc[nH]c2c1)c1csc(n1)NCC1CCCO1]
[1]
  inhibition at 25 µM: 106%

## NC(=O)[C@@H]1CCCN1C(=O)c1cc(-n2cccc2)ccc1Cl [ARUK4000702-001-001, NC(=O)[C@@H]1CCCN1C(=O)c1cc(ccc1Cl)-n1cccc1]
[1]
  inhibition at 25 µM: 45.8%

## CC(=O)N1CCc2nc(N)c(C#N)c(-c3cccc(-c4ccco4)c3)c2C1 [ARUK4004310-001-001, CC(=O)N1CCc2nc(c(c(c2C1)-c1cccc(c1)-c1ccco1)C#N)N]
[1]
  inhibition at 25 µM: 61%

## COc1ccc(C(=O)CC(=O)c2ccc(C(C)(C)C)cc2)cc1 [Avobenzone, reference compound]
  NSP3 Mac1 inhibition at 50 µM (%): 62%
  inhibition at 50 µM: 61.8%

## C[C@H]1[C@H](NC(=O)/C(=N\OC(C)(C)C(=O)O)c2csc(N)n2)C(=O)N1S(=O)(=O)O [Aztreonam, reference compound]
  NSP3 Mac1 inhibition at 50 µM (%): 43%
  inhibition at 50 µM: 42.8%
FDA-approved hit compounds
  Hill slope: 1.05
IC50
  IC50: 29.3 µM and 29 µM

## COc1cc(/C=C2\Oc3cc(O)ccc3C2=O)ccc1O [BCC0002149, COc1cc(/C=C2\Oc3cc(O)ccc3C2=O)ccc1O]
[2]
  inhibition at 25 µM: 47.2%

## CN(C)S(=O)(=O)c1ccc2nc(C(=O)O)n(O)c2c1 [BCC0019152, CN(C)S(=O)(=O)c1ccc2nc(C(=O)O)n(O)c2c1]
[2]
  inhibition at 25 µM: 32.7%

## O=c1cc(-c2ccc(Cl)cc2)oc2cc(OCC(O)CS(=O)(=O)c3ccc(Cl)cc3)ccc12 (stereo not drawn) [BCC0030992, O=c1cc(-c2ccc(Cl)cc2)oc2cc(OCC(O)CS(=O)(=O)c3ccc(Cl)cc3)ccc12]
[2]
  inhibition at 25 µM: 31.6%

## CCN1C(=O)c2cccc3c(S(=O)(=O)O)ccc1c23 [BCC0032304, CCN1C(=O)c2cccc3c(S(=O)(=O)O)ccc1c23]
[2]
  inhibition at 25 µM: 36.4%

## Cc1cccn2c(=O)c3cc(C(=O)O)n(C)c3nc12 [BCC0049478, Cc1cccn2c(=O)c3cc(C(=O)O)n(C)c3nc12]
[2]
  inhibition at 25 µM: 30.6%

## CN1C(=O)c2ccc(N3CCCC3)cc2C1=O [BCC0067629, CN1C(=O)c2ccc(N3CCCC3)cc2C1=O]
[2]
  inhibition at 25 µM: 30.5%

## Oc1nc2ccccc2nc1-c1c[nH]c2ccccc12 [BCC0071692, Oc1nc2ccccc2nc1-c1c[nH]c2ccccc12]
[2]
  inhibition at 25 µM: 35%

## CN(C)c1ccc(-c2ccc3ccccc3n2)cc1 [BCC0083752, CN(C)c1ccc(-c2ccc3ccccc3n2)cc1]
[2]
  inhibition at 25 µM: 46.8%

## Cc1cc2nn(-c3ccccc3)nc2cc1N [BCC0086077, Cc1cc2nn(-c3ccccc3)nc2cc1N]
[2]
  inhibition at 25 µM: 67.8%

## Nc1ccc2nc3c(=O)[nH]c(=O)[nH]c3nc2c1 [BCC0091906, Nc1ccc2nc3c(=O)[nH]c(=O)[nH]c3nc2c1]
[2]
  inhibition at 25 µM: 56.2%

## Oc1cc2ccccc2nc1-c1ccccc1 [BCC0093974, Oc1cc2ccccc2nc1-c1ccccc1]
[2]
  inhibition at 25 µM: 38.6%

## Nc1ccc2oc(-c3cccnc3)nc2c1 [BCC0105824, Nc1ccc2oc(-c3cccnc3)nc2c1]
[2]
  inhibition at 25 µM: 30.1%

## O=c1c(O)c(-c2cccs2)oc2ccccc12 [BCC0111915, O=c1c(O)c(-c2cccs2)oc2ccccc12]
[2]
  inhibition at 25 µM: 62.9%

## COc1cc(/C=C/C(=O)c2cc3ccccc3o2)cc(Br)c1O [BCC0117785, COc1cc(/C=C/C(=O)c2cc3ccccc3o2)cc(Br)c1O]
[2]
  inhibition at 25 µM: 39.3%

## CC(=O)c1ccc(-c2ccc(N)cc2)o1 [BCC0119417, CC(=O)c1ccc(-c2ccc(N)cc2)o1]
[2]
  inhibition at 25 µM: 59.3%

## Nc1ccc2c(c1)C/C(=C/c1ccco1)C2=O [BCC0121661, Nc1ccc2c(c1)C/C(=C/c1ccco1)C2=O]
[2]
  inhibition at 25 µM: 56.9%

## O=c1ccsn1-c1ccc(F)c(Cl)c1 [BCC0125028, O=c1ccsn1-c1ccc(F)c(Cl)c1]
[2]
  inhibition at 25 µM: 57.5%

## O=C(O)CCCC[C@@H]1SC[C@@H]2NC(=O)N[C@@H]21 [Biotin, reference compound]
  NSP3 Mac1 inhibition at 50 µM (%): 107%
  inhibition at 50 µM: 108%

## N.N.O=C([O-])C1(C(=O)[O-])CCC1.[Pt+2] [Carboplatin, reference compound]
  NSP3 Mac1 inhibition at 50 µM (%): 97.3%
FDA-approved hit compounds, top concentration 125 µM
  outcome of dose-response titration: strong assay interference

## CO/N=C(\C(=O)N[C@@H]1C(=O)N2C(C(=O)[O-])=C(C[N+]3(C)CCCC3)CS[C@H]12)c1csc(N)n1.Cl [Cefepime hydrochloride, reference compound]
  NSP3 Mac1 inhibition at 50 µM (%): 42.1%

## CC(C)(O/N=C(\C(=O)N[C@@H]1C(=O)N2C(C(=O)[O-])=C(C[n+]3ccccc3)CS[C@H]12)c1csc(N)n1)C(=O)O [Ceftazidime, reference compound]
  NSP3 Mac1 inhibition at 50 µM (%): 108%
  inhibition at 50 µM: 108%
FDA-approved hit compounds
  Hill slope: 1.38
IC50
  IC50: 37.1 µM and 37 µM

## Nc1nc(/C(=C/CC(=O)O)C(=O)N[C@@H]2C(=O)N3C(C(=O)O)=CCS[C@H]23)cs1 [Ceftibuten, reference compound]
  inhibition at 50 µM: 71.6%

## CC(=O)OCC1=C(C(=O)O)N2C(=O)[C@@H](NC(=O)CCC[C@@H](N)C(=O)O)[C@H]2SC1 [Cephalosporin C sodium, reference compound]
  inhibition at 50 µM: 89.8%

## COCCNC(=O)c1ccc(-c2ccnc3c2ccn3C)o1 [Compound 1, COCCNC(=O)c1ccc(o1)-c1ccnc2n(ccc12)C]
[1]
  inhibition at 25 µM: 73%
MIDAS compound library primary screen, 25 µM, listed as ARUK4007189-001-001, 25 µM
  NSP3 Mac1 inhibition at 25 µM (%): 73.1%

## O=c1c2ccccc2[se]n1-c1ccccc1 [Ebselen, reference compound]
  NSP3 Mac1 inhibition at 50 µM (%): 107%
  inhibition at 50 µM: 108%
FDA-approved hit compounds
  Hill slope: 4.94

## CCOc1ccc2nc3cc(N)ccc3c(N)c2c1 [Ethacridine lactate, reference compound]
  inhibition at 50 µM: 49.3%

## CCCCCCCC/C=C\CCCCCCCC(=O)O.NCCO [Ethanolamine oleate, reference compound]
  NSP3 Mac1 inhibition at 50 µM (%): 56.1%

## Oc1c(Cl)cc(Cl)c(Cl)c1Cc1c(O)c(Cl)cc(Cl)c1Cl [Hexachlorophene, reference compound]
  inhibition at 50 µM: 85.5%

## Nc1c(C(=O)NC2CC2)sc2nc(-c3ccccn3)ccc12 [IAL-MD0017, O=C(C1=C(N)C2=CC=C(C3=NC=CC=C3)N=C2S1)NC4CC4]
[1]
  inhibition at 25 µM: 58.7%
[3]
  inhibition at 125 µM: 79.6%
[4]
  IC50: 12.6 µM

## CC(C)n1ncc2c(C(=O)NCc3cccs3)cc(-c3ccccc3)nc21 [IAL-MD0018, CC(C)N1N=CC=2C(=CC(=NC12)C=3C=CC=CC3)C(=O)NCC4=CC=CS4]
[3]
  Inhibition at top concentration of 125 µM (%): Not measurable
[5]
  IC50 in µM: Not measurable

## CONC(=O)c1cc(-c2ccc(OC)cc2)nc2ccccc12 [IAL-MD0024, CONC(=O)C=1C=C(N=C2C=CC=CC12)C=3C=CC(OC)=CC3]
[3]
  inhibition at 125 µM: 60.3%
[4]
  IC50: 68 µM

## CCn1ncc2c(C(=O)Nc3cccc(NC(C)=O)c3)cc(-c3ccccc3)nc21 [IAL-MD0025, CCN1N=CC=2C(=CC(=NC12)C=3C=CC=CC3)C(=O)NC=4C=CC=C(NC(=O)C)C4]
[3]
  Inhibition at top concentration of 125 µM (%): Not measurable
[5]
  IC50 in µM: Not measurable

## CCn1ncc2c(C(=O)Nc3ncc(C)s3)cc(-c3cccs3)nc21 [IAL-MD0026, CCN1N=CC=2C(=CC(=NC12)C3=CC=CS3)C(=O)NC4=NC=C(C)S4]
[3]
  inhibition at 125 µM: 11.1%
[5]
  IC50 in µM: Not measurable

## COc1ccc(-c2cc(C(=O)O)c3c(C)cc(C)cc3n2)cc1 [IAL-MD0029, COC=1C=CC(=CC1)C=2C=C(C(=O)O)C=3C(C)=CC(C)=CC3N2]
[3]
  inhibition at 125 µM: 61.2%
[4]
  IC50: 76 µM and 75.9 µM

## COc1ccc(-c2cc(C(=O)O)c3ccc(OC)cc3n2)cc1 [IAL-MD0030, COC=1C=CC(=CC1)C=2C=C(C(=O)O)C=3C=CC(OC)=CC3N2]
[3]
  inhibition at 125 µM: 44.7%
[5]
  IC50 in µM: Not measurable
